3 substances from patent US20090317457A1, “ANTI-INFLAMMATORY AND WOUND HEALING EFFECTS OF LYMPHOID THYMOSIN B-4” (Yale University, priority 2002, published 2009) can be followed below.

“And” between values parts separate entries of the source, which are not always exact repeats. Equal entries are not always repeated.

Test [1] concerns λ-carrageenan induced neutrophil mediated inflammation of the footpad. The test can be described thus: λ-carrageenan-induced footpad inflammation (footpad swelling). Format: in vivo, BALB/c mice. Particulars: for Footpad Thickness (+/− SE): oxidised peptide. The protocol:
Experimental groups of 8-10 female BALB/c mice, 8-10 weeks of age, were housed in temperature controlled rooms and given food and water ad libitum. Observations and measurements were made by an investigator blinded to the experimental group. λ-Carrageenan injection. After measuring the baseline thickness of the hind footpads with a spring-loaded engineer's micrometer, mice were injected subcutaneously in both hind paws with 340 μg of λ-carrageenan in 40 μl. 6 h., 24 h., and 48 h. after the injection of λ-carrageenan, footpads were re-measured and swelling calculated by subtracting the baseline from the experimental measurements. For each mouse, increases in right and left footpad thickness were averaged. Thymosin peptides were injected as previously described [reference 8]: (i) intraperitoneally with 100 μl of 3.50×10^−5 M peptide solution, 30 minutes before footpad injection; (ii) intradermally into the footpad with 40 μl of 8.75×10^−5 M peptide solution and λ-carrageenan at time 0, and (iii) intraperitoneally with 100 μl of 3.50×10^−5 M peptide solution, 6 h. after footpad injection. For each group, the mean increase in footpad thickness was calculated, and compared to other groups using a one-tailed Student's t-test. The experiment was repeated four times. Statistics. Groups were compared for differences in the meaning using a one-tailed Student's t test; p<0.05 was considered statistically significant.

Test [2] has as its system DNFB-induced allergic contact dermatitis of ear skin. In words: DNFB allergic contact dermatitis (ACD) ear swelling assay. Format: in vivo, FVB mice. To be noted: for ear thickness: unit not given. The protocol:
Experimental groups of 8-10 female FVB mice, 8-10 weeks of age, were housed in temperature controlled rooms and given food and water ad libitum. Observations and measurements were made by an investigator blinded to the experimental group. Mice were sensitized on day 0 by epicutaneous application to razor-shaved abdominal skin of 25 μl of 0.5% DNFB in a mixture of acetone:olive oil (4:1). Before the challenge with DNFB, mice were injected (i) intraperitoneally with 100 μl of 3.50×10^−5 M thymosin peptide solution (30 minutes before DNFB) and (ii) intradermally with 40 μl of 8.75×10^−5 M peptide solution in both ears (1 min prior to DNFB challenge). On day 5, after measuring baseline ear thickness with an engineer's micrometer, mice were challenged by applying 10 μl of 0.2% DNFB in acetone:olive oil to each side of each ear. Ears were re-measured 6 h., 24 h., and 48 h. after challenge, and data expressed as the response above baseline (i.e., ear thickness 24 h. after challenge minus ear thickness immediately prior to challenge)±1 standard error of the mean (S.E.). For each mouse, increases in right and left ear thickness were averaged. The experiment was repeated twice. Statistics. Groups were compared for differences in the meaning using a one-tailed Student's t test; p<0.05 was considered statistically significant.

Test [3] deals with human umbilical vein endothelial cells (HUVEC). In words: Endothelial scratch wound assay. Type of test: cell-based. Particulars: for % Closure (+/− SE %): 2.0×10^-7 M peptide, ECGS 200 μg. From the text:
The endothelial “scratch wound assay” was utilised to test the effects of mUTβ4 and mLTβ4 on the migration of endothelial cells in vitro, as described in […] et al. (1997) Thymosin beta 4 accelerates wound healing. J Invest Dermatol. 1999 September; 113(3):364-8 and Young et al., (1999) Thymosin b 4 sulfoxide is an anti-inflammatory agent generated by monocytes in the presence of glucocorticoids. Nature Medicine. 5:1424-1427. HUVECs were obtained from the Endothelial Cell Culture Core Laboratory of the Yale Skin Diseases Research Core Center (Dr. M. Kluger). Passage 3 was used, and plated at a density of 9.5×10^4 cells per well. Cells were grown to 90% confluence in 24 well plates (Corning/Costar), in M-199 media supplemented with 20% FBS, antibiotics, and endothelial cell growth supplement (ECGS). A scratch was made along the diameter of each well with a sterile blue 1 ml pipette tip (Falcon). Cells were then rinsed in MEM buffer. Thymosin peptide was added to the cells in media lacking ECGS but containing 10 mM thymidine to inhibit cell proliferation. In the experimental groups, HUVECs were given 2.0×10^-7 M peptide solution of mUTb4, or in LTb4. Control groups consisted of saline (negative control) and 200 mg of ECGS (positive control). The plates were incubated at 37° C., fixed in 2% paraformaldehyde, and stained with crystal violet at time points 9 h. and 24 h. The scratch width was measured using a microscope with a 4× objective lens connected to a digital camera and then analyzed using Scion Image 1.62 software. The percent closure of the 9 h. and 24 h. measurements was calculated by dividing by the original wound width at time zero in square pixels. For each group, the mean percent closure was calculated, based on 4 images per well, 4 wells per group.

In test [4] the test system is TPA-induced irritant contact dermatitis of ear skin. The test can be described thus: TPA irritant contact dermatitis (ICD) ear swelling assay. Type of test: in vivo, BALB/c and FVB mice. Particulars: for ear swelling: 6 h, unit not given; for TPA Ear Thickness (+/− SE): increase over baseline. The protocol: Experimental groups of 8-10 female BALB/c and FVB mice, 8-10 weeks of age, were housed in temperature controlled rooms and given food and water ad libitum. Observations and measurements were made by an investigator blinded to the experimental group.
After measuring the baseline ear thickness, naïve mice were injected intraperitoneally (IP) with either 100 μl of PBS, or 100 μl of 3.50×10^−5 M peptide solution (oxidized mTβ4 (“mTβ4-so”), or oxidized mLTβ4 (“mLTβ4-so”) [n=10 per group]). 30 minutes later, mice were injected intradermally with 40 μl of either PBS or 8.75×10^−5 M solution of the appropriate peptide in both ears. One minute later, 40 nmol TPA (in 10 μl acetone) was applied to the anterior side of each ear. 6 h. and 24 h. after the topical application of TPA, the ears were re-measured, and the increases in ear thickness between baseline and 6 h. and between baseline and 24 h. calculated. For each mouse, increases in right and left ear thickness were averaged.
Statistics. Groups were compared for differences in the meaning using a one-tailed Student's t test; p<0.05 was considered statistically significant.

For “N-LLPATMSDKPDMAEIEKFDKSKLKKTE-TQEKNPLPSKETIEQEKQAGES-C (SEQ ID NO:8) (LLPATMSDKPDMAEIEKFDKSKLKKTETQEKNPLPSKETIEQEKQAGES; listed as Homo sapiens) [LTβ4, lymphoid thymosin-β4 polypeptide, un-methionated form, chemically synthesised]”, the results for the “suppression of footpad inflammation relative to PBS” value in test [1] (6 h), in test [1] (24 h) and in test [1] (48 h) were 21%, 58% and 42%, respectively. Moreover, the “footpad swelling compared with mice receiving PBS or UTβ4 (FIG. 2A)” value in test [1] (24 h) was “significantly reduced footpad swelling”. In test [1] (24 h, unit not given), this substance came in with a footpad thickness of 0.22±0.03. The Footpad Thickness (+/− SE) in test [1] (Un-Methionated Thymosin Experiment (A), forty-eight hours after λ-carrageenan) was 0.34 ± 0.04 mm; in test [1] (Un-Methionated Thymosin Experiment (A), six hours after λ-carrageenan, increase over baseline) it was 0.47 ± 0.04 mm; in test [1] (Un-Methionated Thymosin Experiment (A), twenty-four hours after λ-carrageenan), 0.22 ± 0.03 mm. For the same substance, the “suppression of ACD ear swelling response relative to PBS” value is recorded as 17% in test [2] (6 h), 21% in test [2] (24 h) and 24% in test [2] (72 h). In test [2] (6 h, 24 h and 72 h after challenge), the “ear swelling response compared to mice receiving PBS or UTβ4 (FIG. 4A)” value is given as “significant reduction in ear swelling response”. Besides, the “DNFB Ear Thickness (+/− SE)” value in test [2] (Un-Methionated Thymosin Experiment, forty-eight hours after challenge) is reported as 15.45 ± 0.91 .01 mm; in test [2] (Un-Methionated Thymosin Experiment, six hours after challenge) it was 7.83 ± 0.61 .01 mm; in test [2] (Un-Methionated Thymosin Experiment, twenty-four hours after challenge), 18.98 ± 0.74 .01 mm. Besides, the “thinner ears than uTβ4-so treated mice” value in test [2] (seventy-two hours) was determined as 22%; in test [2] (six hours) it was 21%; in test [2] (twenty-four hours) it was 16%. Besides, the ear thickness in test [2] (seventy-two hours) amounted to 15.45±0.91; in test [2] (six hours), 7.83±0.61; in test [2] (twenty-four hours) it was 18.98±0.74.

Take “N-MLLPATMSDKPDMAEIEIFDKSKILITE-TQEKNPLPSKETIEQEKQAGES-C (SEQ ID NO:9) (MLLPATMSDKPDMAEIEKFDKSKLKKTETQEKNPLPSKETIEQEKQAGES; listed as Homo sapiens) [mLTβ4, N-terminal methionated lymphoid thymosin-β4, chemically synthesised]”: the “suppression of footpad inflammation relative to PBS” value in test [1] (6 h) was 50%; in test [1] (24 h) it was 59%; in test [1] (48 h), 34%. The “footpad swelling compared with mice receiving PBS or mUTβ4 (FIG. 2B)” value in test [1] (6 h and 24 h) is “significantly reduced footpad swelling”. The “suppression of ACD ear swelling response relative to PBS” value in test [2] (6 h) is given as 37%; in test [2] (24 h), 27%; in test [2] (72 h), 42%. Also, in test [2] (24 h and 72 h), the “ear swelling response relative to mice that received PBS or mUTβ4 (FIG. 4B)” value is recorded as “significant reduction in ear swelling response”. In addition, the “% Closure (+/− SE %)” value turned out to be 27.2 ± 1.6% in test [3] (nine hours); 27.2% in test [3] (nine hours, listed as mLβ); 37.3 ± 4.4% in test [3] (twenty-four hours); 37.3% in test [3] (twenty-four hours, listed as mLβ). For the same substance, in test [3] (twenty four hours), the “more closure than mTβ4-so” value is on record as 15.3%. Further, in test [3] (vs PBS at 9 h and 24 h, vs mUTβ4 at 24 h), the “effect on migration of HUVEC to close an artificial wound (FIG. 5)” value is “significantly greater than PBS”. The ear swelling in test [4] stood at 18.00±1.58. Besides, the “suppression of inflammation relative to PBS-treated controls” value stood at 41% in test [4] (6 h post-application of TPA) and 24% in test [4] (24 h post-application of TPA). In test [4] (vs PBS at 6 h and 24 h, vs mUTβ4 at 6 h), the “suppression of TPA-induced ear swelling (FIG. 3)” value was “significantly more than PBS”.

As for “N-MSDKPDMAEIEKFDKSKLKKTETQEINPL-PSIETIEQEKQAGES-C (SEQ ID NO:2) [mUTβ4]”, the “suppression of footpad inflammation relative to PBS” value is on record as 29% in test [1] (6 h), 45% in test [1] (24 h) and 38% in test [1] (48 h). Further, the “Footpad Thickness (+/− SE)” value in test [1] (Methionated Thymosin Experiment (B), forty-eight hours after λ-carrageenan, listed as mTβ4-so) is 0.51 ± 0.02 mm and 0.55 ± 0.03 mm; in test [1] (Methionated Thymosin Experiment (B), six hours after λ-carrageenan, listed as mTβ4-so) it was 0.36 ± 0.06 mm and 0.51 ± 0.05 mm; in test [1] (Methionated Thymosin Experiment (B), twenty-four hours after λ-carrageenan, listed as mTβ4-so), 0.38 ± 0.01 mm and 0.28 ± 0.04 mm. For the same substance, in test [2] (72 h), the “suppression of ACD ear swelling response relative to PBS” value is on record as 29%. Besides, the “DNFB Ear Thickness (+/− SE)” value in test [2] (Methionated Thymosin Experiment, forty-eight hours after challenge, listed as mTβ4-so) was 18.39 ± 1.67 mm and 15.11 ± 0.37 mm; in test [2] (Methionated Thymosin Experiment, six hours after challenge, listed as mTβ4-so) it was 5.18 ± 0.78 mm and 4.39 ± 1.08 mm; in test [2] (Methionated Thymosin Experiment, twenty-four hours after challenge, listed as mTβ4-so), 20.25 ± 1.54 mm and 16.75 ± 0.48 mm. The “% Closure (+/− SE %)” value in test [3] (nine hours, listed as mTβ4) is 24% and 24.0 ± 1.1%; in test [3] (twenty-four hours, listed as mTβ4), 21% and 21.0 ± 1.5%; in test [3] (twenty-four hours, listed as mTβ4-so), 21.0±1.5%. The ear swelling in test [4] is reported as 24.10±1.83. Besides, the “suppression of inflammation relative to PBS-treated controls” value in test [4] (6 h post-application of TPA) was 21%; in test [4] (24 h post-application of TPA), 13%. Also, the “TPA Ear Thickness (+/− SE)” value in test [4] (six hours after TPA, listed as mTβ4) was 24.10 ± 1.83 mm and 18.00 ± 1.58 mm; in test [4] (twenty-four hours after TPA, listed as mTβ4-so), 19.00 ± 1.83 mm and 16.75 ± 1.79 mm.
